Results from ChEMBL document CHEMBL1123523, “Oxidation of 5-hydroxytryptamine and 5,7-dihydroxytryptamine. A new oxidation pathway and formation of a novel neurotoxin” (J Med Chem, 1986).

Species: Mus musculus
Assay: Compound was tested for lowering the norepinephrine levels in mouse brain expressed as percent of control values
Assay type: functional
Details: not given

Compound `NCCc1c[nH]c2c1C(=O)C(=O)C=C2O` has an Activity of 87%.

What follows are compounds tested on Mus musculus (assay: Compound was tested for neurotoxic property after intracranial administration in mice). Details: in vivo, other.
Assay type: ADME, organism-based

Point of comparison: `NCCc1cc(O)c(O)cc1O` [OXIDOPAMINE], LD50 80 µg. Against it:
- NCCc1c[nH]c2c1C(=O)C(=O)C=C2O — lower, 20 µg
- NCCc1cc(O)c(O)cc1N — lower, 50 µg
- CC(N)Cc1cc(O)c(O)cc1N (stereo unspecified) — lower, 45 µg
- NCCc1c[nH]c2c(O)cc(O)cc12 — lower, 55 µg
